Results from patent publication US20250296942A1, “Phosphonate-Based Coordination Complexes and Methods of Preparation and Use Thereof” (University of Puerto Rico, priority 2021, published 2025).

What was measured:
Type in all cases: cell-based
[1] = test system: human breast cancer MCF-7 cell line; test: AlamarBlue cytotoxicity, 2,2′-BPBPA series, MCF-7
Method: (§1) Cell culture methods. MCF-7 and MDA-MB-231 were incubated using DMEM at 37° C. in 5% CO2. The hFOB 1.19 cell lines were incubated with DMEM: F12 at 34° C. in 5% CO2.
(§2) Cell lines were supplemented using 10% FBS and 1% Pen-Strep. The media was replaced twice per week. Cell passages were carried out at 80% confluency.
(§3) Cell-based assays. Cell lines were seeded in 96 well plates at a density of 5x 10^3 cells/mL and incubated for 24 h before treatment. Cells were treated with 100 μL of 2,2′-BPBPA (0-400 μM), unloaded and loaded nano-Ca@2,2′-BPBPA (6.3-50 μM) for 24, 48, and 72 h.
(§4) Control groups were treated with media (DMEM or DMEM: F12) supplemented with 1% Pen-Strep. Cell viability was determined by employing AlamarBLue@. The media was replaced with 100 μL of 10% AlamarBlue® solution. After 24 h of incubation, the fluorescence was assessed at )max of 560 nm for excitation and 590 nm for emission.
(§5) Cell culture methods. MCF-7 and MDA-MB-231 were incubated using DMEM at 37° C. in 5% CO2. The hFOB 1.19 cell lines were incubated with DMEM: F12 at 34° C. in 5% CO2. Cell lines were supplemented using 10% FBS and 1% Pen-Strep. The media was replaced twice times per week. Cell passages were carried out at 80% confluency.
Seeding. Cell lines were seeded in 96 well plates at a density of 5×10^3 cells/mL; cells were incubated for 24 h before each treatment.
Treatment. Cell lines were treated with 100 μL of 2,2′-BPBPA (0-400 μM), unloaded and loaded nano-Ca@2,2′-BPBPA (6.3-50 μM). Control groups were treated with media (DMEM or DMEM: F12) supplemented with 1% Pen-Strep. All cell-based assays were conducted for 24, 48, and 72 h of treatment. Experiments were performed in triplicate.
AlamarBlue@assay. To determine the cell viability, the media was removed and replaced with 100 μL of 10% AlamarBlue® solution. The 96 well plates were incubated for 4 h before the measurements. Then, the fluorescence was assessed at 560 nm of excitation and λmax 590 nm of emission. The IC50 curves for MCF-7, MDA-MB-231, and hFOB 1.19 cell lines treated with 2,2′-BPBPA are presented in FIGS. 211A-211C, 212A-212C, and 213A-213C.

[2] = test system: human osteoblast hFOB 1.19 cell line; test: AlamarBlue cytotoxicity, 2,2′-BPBPA series, hFOB 1.19
Method: as §1, §2, §3, §4, §5
Seeding. […]
AlamarBlue@assay. […] Then, the fluorescence was assessed at 560 nm of excitation and λmax 590 nm of emission. […]

[3] = test system: human breast cancer MCF-7 cell line; test: AlamarBlue cytotoxicity, BPBPA series, MCF-7
Method: Cell culture methods. MCF-7, MDA-MB-231, and hFOB 1.19 cell lines were incubated employing DMEM (37° C.) and DMEM: F12 (34° C.) medium, respectively, in a 5% CO2. Cell lines were supplemented using 10% FBS and 1% Pen-Strep and medium exchange was performed twice a week. Cell passages were carried out at 80% confluency.
Cell-based assays. Cell lines were seeded in 96 well plates at a density of 5×10^3 cells/mL, cells were incubated for 24 h before treatment. Both cell lines were treated with 100 μL of BPBPA (0-400 μM), LET (0-200 μM), unloaded and loaded nano-Ca@BPBPA (0-50 μM). All cell-based assays were performed for 24, 48, and 72 h of treatment. Control groups were treated with media (DMEM or DMEM: F12) supplemented with 1% Pen-Strep. Then, the media was removed and replaced with 100 μL of 10% AlamarBlue® solution. The 96 well plates were incubated for 4 h before measurements. Then, the fluorescence was assessed at 560 nm of excitation and λmax 590 nm of emission. The cell viability (%) was evaluated by contrasting the percentage of live cells of the control groups with the cells treated with BPBPA, LET, unloaded and loaded nano-Ca@BPBPA. The half-maximal inhibitory concentration (IC50) was determined for BPBPA and letrozole employing the dose-response curves (% cell live vs. concentration). The relative cell live (% RCL) was assessed for the unloaded and loaded nano-Ca@BPBPA, utilizing LET as a control group. The IC50 and % RCL were plotted using the GraphPad Prism software vs. 9.3.0.
The cytotoxicity of BPBPA (control), LET (control), nano-Ca@BPBPA (control), and drug-loaded nano-Ca@BPBPA (experimental) was investigated employing the human breast cancer, MCF-7 and MDA-MB-231, and the human osteoblast, hFOB 1.19, cell lines. The human MCF-7 cell line represents an ER-positive breast cancer model with estrogen, progesterone, and glucocorticoid receptors.^1 While, the human MDA-MB-231 cells correspond to a model of ER-negative breast cancer. Both selected cancer cell lines can be implicated in the development and progress of bone metastases in patients.^40,41 The human fetal hFOB 1.19 cells represent a homogeneous osteoblast-like (non-cancerous) model commonly employed to assess osteoblast differentiation.^42 The cytotoxicity of these materials was evaluated by determining the IC50 and % RCL. […] Similar results were found for MDA-MB-231 and hFOB 1.19 cell lines treated with LET (IC50 >200 μM) at the same time points (Supporting Information).
Cell culture methods. MCF-7 and MDA-MB-231 were incubated employing DMEM media at 37° C. in 5% CO2. The hFOB 1.19 cell lines were incubated using DMEM: F12 at 34° C. in 5% CO2. Cell lines were supplemented using 10% FBS and 1% Pen-Strep. The media was exchanged twice per week. Cell passages were carried out at 80% confluency.
Seeding. Cell lines were seeded in 96 well plates at a density of […] cells/mL; cells were incubated for 24 h before each treatment.
Treatment. Cell lines were treated with 100 μL of BPBPA (0-400 μM), LET (0-200 μM), unloaded and loaded nano-Ca@BPBPA (0.5-50 μM). Control groups were treated with media (DMEM or DMEM: F12) supplemented with 1% Pen-Strep. All cell-based assays were performed after 24, 48, and 72 h of treatment and in triplicate.
AlamarBlue@assay. To determine the cell viability, the media was removed and replaced with 100 μL of 10% AlamarBlue® solution. The 96 well plates were incubated for 4 h before measurements. Then, the fluorescence was assessed at 560 nm of excitation and λmax 590 nm of emission.

O=P(O)(O)c1ccc(-c2ccc(P(=O)(O)O)cn2)nc1 [2,2′-BPBPA, 2,2′-bipyridine-5,5′-bisphosphonic acid]
IC50 ([1]; Homo sapiens, MCF7, 72 h): 134 ± 2 µM
IC50 ([2]; Homo sapiens, Osteoblast, 72 h): > 188 µM

N#Cc1ccc(C(c2ccc(C#N)cc2)n2cncn2)cc1 [LET, letrozole]
% RCL ([1]; 6.3 μM, 24 h): about 100±2%
% RCL ([1]; 6.3 μM, 48 h): ~79 ±1%
% RCL ([1]; 6.3 μM, 72 h): ~74±3%
% RCL ([1]; 12.5 μM, 24 h): 100±2%
% RCL ([1]; 12.5 μM, 48 h): 71±3%
% RCL ([1]; 12.5 μM, 72 h): 68±2%
% RCL ([1]; 25 μM, 24 h): 100±1%
% RCL ([1]; 25 μM, 72 h): 46±2%
% RCL ([1]; 50 μM, 24 h): 99±1%
% RCL ([1]; 50 μM, 72 h): 40±1%
% RCL ([3]; 0.5 μM, 24 h): ~100%
% RCL ([3]; 0.5 μM, 48 h): ~100%
% RCL ([3]; 0.5 μM, 72 h): 88±5%
% RCL ([3]; 1.6 μM, 72 h): 81%
% RCL ([3]; 3.1 μM, 24 h): 99±2%
% RCL ([3]; 3.1 μM, 48 h): 86±3%
% RCL ([3]; 3.1 μM, 72 h): 78±1%
% RCL ([3]; 6.3 μM, 24 h): 99±1%
% RCL ([3]; 6.3 μM, 72 h): 75±3%
% RCL ([3]; 12.5 μM, 72 h): 70±1%
IC50 ([3]; Homo sapiens, MCF7, 72 h): ~20 µM
% RCL ([2]; 6.3-50 μM, 24, 48, 72 h): ~99%
